# Experimental data: patent US20140106967A1, “AUXIN PLANT GROWTH REGULATORS” (The Governors of The University of Alberta, priority 2011, published 2014)
# Key:
# tomato fruit = settings: cited from earlier work
# [1] = system: AtGA20ox and AtGA3ox genes; settings: non-pollinated fruits; cited from earlier work
# pea 'Carneval' = assay: Growth chamber experiment 1, pea 'Carneval' sprayed with 4-Cl-IAA (Table P2); type: in vivo, Pisum sativum L.; settings: for Seed yield per plant: sprayed near or at anthesis
# Protocol: For growth chamber experiment, seeds of ‘Carneval’ were planted at an approximate depth of 2.5 cm in 3-L plastic pots (4 seeds per pot and thinned to 2 plants per pot after approximately 2 weeks) in 1:1 Sunshine #4 potting mix (Sun Gro Horticulture, Vancouver, Canada) and sand. The experiment was arranged in a completely randomized design and grown at the University of Alberta in a growth chamber set at 19° C./17° C. (day/night) with a 16/8-h photoperiod under cool-white fluorescent lights (54W/835/HO high fluorescent bulbs, Phillips, Holland; 350 μE m^2 s^−2). For the heat stress treatment, plants were placed in a separate growth chamber with a 16/8-h photoperiod under cool-white fluorescent lights (F54/15/835/HO high fluorescent bulbs, Phillips, Holland) for 4 days where the temperature was cycled over a 24 hr period as follows: 33° C. air temperature for 6 hours per day (between 11:00 and 17:00 hrs) for 4 days during the light cycle; the remainder of the light cycle was maintained at a 22° C. air temperature; the dark cycle was maintained at 19° C. After the 4 day heat treatment, the plants were returned to the same growth chamber they were originally grown in, where they were taken to maturity.
# For experiment 1, aqueous 4-chloro-indole-3-acetic acid (4-Cl-IAA) solutions at 1×10^−7, 1×10^−6, or 1×10^−5M in 0.1% (v/v) Tween 80 or aqueous 0.1% (v/v) Tween 80 (control) were applied one time as a spray to the entire plant to cover when the first flowering node of the main stem was near or at anthesis.
# canola cv. Peace = assay: Greenhouse canola study, foliar auxin spray at green bud stage, with or without heat stress (Tables C1-C4); type: in vivo, Brassica napus
# Protocol: Canola seeds (Brassica napus) from the cultivar Peace were planted at an approximate depth of 1 cm in 5 inch square plastic pots (6 inch pot depth; 4 seeds per pot) in 1:1 Sunshine #4 potting mix (Sun Gro Horticulture, Vancouver, Canada) and sand. The seedlings were thinned to one seedling per pot approximately 2 weeks after seeding. Plants were grown at the University of Alberta in a greenhouse from Nov. 14, 2011 to Mar. 5, 2012. The average temperature was approximately 18° C. day/16° C. night (Nov. 14, 2011 to Feb. 8, 2012) then 21° C. day/19° C. night from Feb. 8 to Mar. 5, 2012. The plants also received supplemental lighting daily (average photon flux density of 250 μE m^−2s^−2) for 16 hours per day (from 6 am to 10 pm).
# The auxins, 4-methyl-indole-3-acetic acid (4-ME-IAA) or 4-chloro-indole-3-acetic acid (4-Cl-IAA) at 1×10^−7, 1×10^−6, 1×10^−5, or 1×10^−4M in aqueous 0.1% (v/v) Tween 80 or a control solution (aqueous 0.1% [v/v] Tween 80) were applied one time as a foliar spray to canola plants at the green bud stage (BBCH scale 51; prior to bolting when flower buds are visible from above, but they are tightly clustered and have not extended above smallest leaves surrounding the inflorescence). The experiment was arranged in a completely randomized design in the greenhouse.
# The heat stress treatment was imposed by moving plants to receive the heat stress from the greenhouse into a growth chamber for 6 days. The light cycle began at 7:00 hours at a 19° C. air temperature. The heat treatment began at 11:00 hours (33° C. air temperature) and was maintained for 6 hours (until 17:00 hours). Following the heat treatment, the remainder of the light cycle was maintained at a 22° C. air temperature. The dark cycle (began at 23:00 hours) was maintained at 17° C. The photoperiod was 16 h light/8 h dark at an average photon flux density of 492 μE m^−2s^−2 using 54W/835/HO high fluorescent bulbs, Phillips, Holland. This heat treatment cycle was imposed for 6 days. The plants were returned to the greenhouse after the heat stress treatment to develop to maturity.
# pea pericarp [2] = assay: Split-pericarp assay: growth of deseeded pea pericarps attached to the plant; type: in vivo, Pisum sativum
# Excerpt: In addition to GAs, developing pea seeds and pericarps contain two auxins, 4-chloroindole-3-acetic acid (4-Cl-IAA) and indole-3-acetic acid (IAA) (Magnus et al. 1997). A split-pericarp assay where test compounds are applied to the inner wall of split and deseeded pericarps that are still attached to the plant has been developed to examine the effects of exogenously applied growth substances on pericarp growth.
# (§1) During early pea fruit growth, the physiological roles of 4-chloroindole-3-acetic acid (4-Cl-IAA) and IAA, both natural pea auxins, in regulating gibberellin (GA) 20-oxidase gene expression (PsGA20ox1) were tested with 4-position, ring-substituted auxins that have a range of biological activities (fruit growth). The effect of seeds, and natural and synthetic auxins (4-Cl-IAA, and IAA; 4-Me-IAA, 4-Et-IAA and 4-F-IAA, respectively), and auxin concentration (4-Cl-IAA) on PsGA20ox1 mRNA levels in pea pericarp were investigated over a 24 h treatment period. The ability of certain 4-substituted auxins to increase PsGA20ox1 mRNA levels in deseeded pericarp was correlated with their ability to stimulate pericarp growth.
# [3] = system: PsGA20ox1, PsGA3ox1, PsGA2ox1; assay: GA biosynthesis/catabolism gene expression in pea pericarp; type: in vivo, Pisum sativum; settings: 24 h treatment period
# Protocol: as §1
# pea pericarp [4] = settings: cited from earlier work; for substitution for seeds in stimulating pericarp growth: deseeded pericarps, early pericarp growth (2 DAA); for substitution for the seeds in maintaining pea fruit growth in planta: in vivo
# [5] = system: PsGA20ox1, PsGA3ox1, PsGA2ox1; settings: in vivo; cited from earlier work
# [6] = 1×10^−4 M, heat stress 33° C. 6 h/day, 6 days (Table C4)
# [7] = 1×10^−4 M, non-heat stress (Table C3)
# [8] = 1×10^−5 M, heat stress 33° C. 6 h/day, 6 days (Table C4)
# [9] = 1×10^−5 M, non-heat stress (Table C3)
# [10] = 1×10^−6 M, heat stress 33° C. 6 h/day, 6 days (Table C4)
# [11] = 1×10^−6 M, non-heat stress (Table C3)
# [12] = 1×10^−7 M, heat stress 33° C. 6 h/day, 6 days (Table C4)
# [13] = 1×10^−7 M, non-heat stress (Table C3)
smiles,measurement,setting,value
"O=C(O)COc1ccc(Cl)cc1Cl [2,4-D]",parthenocarpic fruit growth,tomato fruit,induced parthenocarpic tomato fruit growth
same,expression of specific AtGA20ox and AtGA3ox genes,[1],up-regulated
"O=C(O)Cc1c[nH]c2cccc(Cl)c12 [4-Cl-IAA, 4-chloroindole-3-acetic acid]",increase in seed yield vs control,pea 'Carneval'; 1×10^−5 M,62%
same,Seed yield per plant,pea 'Carneval'; 1×10^−5 M,18.28 ± 1.55 g
same,increase in seed yield vs control,pea 'Carneval'; 1×10^−6 M,65%
same,Seed yield per plant,pea 'Carneval'; 1×10^−6 M,18.61 ± 1.65 g
same,Seed yield per plant,pea 'Carneval'; 1×10^−7 M,13.60 ± 1.33 g
same,leaf epinasty,"canola cv. Peace; 1×10^−4 M, 24 hours after treatment, milder under heat stress",leaf epinasty was observed
same,% pod set,canola cv. Peace; [6],49 ± 4%
same,Seed yield,canola cv. Peace; [6],4.9 ± 0.8 g
same,Total number of flowers,canola cv. Peace; [6],312 ± 32
same,Total number of pods with developing seeds,canola cv. Peace; [6],151 ± 17
same,Total number of racemes,canola cv. Peace; [6],12 ± 1
same,Total number undeveloped pods,canola cv. Peace; [6],45 ± 15
same,% pod set,canola cv. Peace; [7],54 ± 4%
same,Seed yield,canola cv. Peace; [7],4.0 ± 0.3 g
same,Total number of flowers,canola cv. Peace; [7],201 ± 24
same,Total number of pods with developing seeds,canola cv. Peace; [7],106 ± 8
same,Total number of racemes,canola cv. Peace; [7],8 ± 1
same,Total number undeveloped pods,canola cv. Peace; [7],17 ± 4
same,reduction in number of racemes per plant vs control,"canola cv. Peace; 1×10^−4 M, non-stress",33%
same,reduction in seed yield vs control,"canola cv. Peace; 1×10^−4 M, non-stress",26%
same,reduction in total number of developing pods per plant vs control,"canola cv. Peace; 1×10^−4 M, non-stress",31%
same,% pod set,canola cv. Peace; [8],48 ± 2%
same,Seed yield,canola cv. Peace; [8],5.5 ± 1.0 g
same,Total number of flowers,canola cv. Peace; [8],414 ± 65
same,Total number of pods with developing seeds,canola cv. Peace; [8],198 ± 33
same,Total number of racemes,canola cv. Peace; [8],14 ± 2
same,Total number undeveloped pods,canola cv. Peace; [8],34 ± 6
same,increase in total number of pods with developing seeds per plant vs control,"canola cv. Peace; 1×10^−5 M, non-heat stress",27%
same,% pod set,canola cv. Peace; [9],57 ± 6%
same,Seed yield,canola cv. Peace; [9],5.8 ± 1.0 g
same,Total number of flowers,canola cv. Peace; [9],362 ± 53
same,Total number of pods with developing seeds,canola cv. Peace; [9],195 ± 21
same,Total number of racemes,canola cv. Peace; [9],14 ± 2
same,Total number undeveloped pods,canola cv. Peace; [9],47 ± 19
same,% pod set,canola cv. Peace; [10],53 ± 3%
same,Seed yield,canola cv. Peace; [10],6.8 ± 0.5 g
same,Total number of flowers,canola cv. Peace; [10],430 ± 39
same,Total number of pods with developing seeds,canola cv. Peace; [10],229 ± 30
same,Total number of racemes,canola cv. Peace; [10],15 ± 1
same,Total number undeveloped pods,canola cv. Peace; [10],42 ± 5
same,seed yield vs control,"canola cv. Peace; 1×10^−6 M, mild heat stress",significant increase
same,% pod set,canola cv. Peace; [11],59 ± 4%
same,Total number of flowers,canola cv. Peace; [11],290 ± 26
same,Total number of pods with developing seeds,canola cv. Peace; [11],174 ± 25
same,Total number of racemes,canola cv. Peace; [11],12 ± 1
same,Total number undeveloped pods,canola cv. Peace; [11],29 ± 4
same,% pod set,canola cv. Peace; [12],46 ± 3%
same,Seed yield,canola cv. Peace; [12],6.0 ± 0.9 g
same,Total number of flowers,canola cv. Peace; [12],443 ± 70
same,Total number of pods with developing seeds,canola cv. Peace; [12],197 ± 15
same,Total number of racemes,canola cv. Peace; [12],13 ± 2
same,Total number undeveloped pods,canola cv. Peace; [12],43 ± 14
same,increase in percent pod set vs control,"canola cv. Peace; 1×10^−7 M, non-heat stress",21%
same,increase in total number of pods with developing seeds per plant vs control,"canola cv. Peace; 1×10^−7 M, non-heat stress",18%
same,% pod set,canola cv. Peace; [13],64 ± 4%
same,Seed yield,canola cv. Peace; [13],6.2 ± 0.6 g
same,Total number of flowers,canola cv. Peace; [13],287 ± 29
same,Total number of pods with developing seeds,canola cv. Peace; [13],181 ± 14
same,Total number of racemes,canola cv. Peace; [13],10 ± 1
same,Total number undeveloped pods,canola cv. Peace; [13],26 ± 9
same,pericarp growth (biological activity),pea pericarp [2],greatest increase
same,PsGA20ox1 mRNA levels in deseeded pericarp,[3],greatest increase
same,substitution for seeds in stimulating pericarp growth,pea pericarp [4],can substitute for seeds in stimulating pericarp growth
same,substitution for the seeds in maintaining pea fruit growth in planta,pea pericarp [4],can substitute for the seeds
same,gene expression of the GA catabolic gene PsGA2ox1,[5],repress
same,"pericarp GA biosynthesis gene expression, PsGA20ox1 and PsGA3ox1",[5],stimulate
"O=C(O)Cc1c[nH]c2ccccc12 [IAA, indole-3-acetic acid, reference compound]",pericarp growth (biological activity),pea pericarp [2],not effective
same,PsGA20ox1 mRNA levels in deseeded pericarp,[3],not effective
same,substitution for seeds in stimulating pericarp growth,pea pericarp [4],cannot
same,substitution for the seeds in maintaining pea fruit growth in planta,pea pericarp [4],not
CCc1cccc2[nH]cc(CC(=O)O)c12 [4-Et-IAA],pericarp growth (biological activity),pea pericarp [2],minimal or no increase
same,PsGA20ox1 mRNA levels in deseeded pericarp,[3],minimal or no increase
O=C(O)Cc1c[nH]c2cccc(F)c12 [4-F-IAA],pericarp growth (biological activity),pea pericarp [2],minimal or no increase
same,PsGA20ox1 mRNA levels in deseeded pericarp,[3],minimal or no increase
